These results are taken from patent US8742106B2 (Novartis AG, priority 2009, dated 2014).

Structures are written as SMILES.

The target of one experiment is human orexin 2 receptors (Homo sapiens (Human), UniProt O43614). In words: Calcium Accumulation in Cells (FLIPR), antagonism of orexin A. The format is cell-based. To be noted: for Ki: antagonism of orexin A, Cheng-Prusoff corrected, read-out: FLIPR hOx2R Ki; for inhibition at 10 µM: measured at a concentration of 10 μM of compound, read-out: FLIPR hOx2R % inhibition value. The method, then: (§1) Calcium Accumulation in Cells (FLIPR):
Cells expressing human orexin 1 or human orexin 2 receptors, were seeded at 8,000 cells/well in 384 well black-walled clear bottom, poly-D-lysine coated plates.
On the day of the experiment, the cells seeded in black plates were treated with assay buffer containing the Ca^2+ sensitive fluorescent dye Fluo4-AM (2 μM), and probenecid (0.1 mM). After 1 h plates were washed twice with, and resuspended in, assay buffer containing probenecid (0.1 mM) using a multi plate washer. […] Fluorescence measurements were then continued every 1 S for 120 S followed by every 4 S for 240 S.
(§2) The measurements were typically made in two sequences:
(§3) In the first round, compounds of formula (I) or (I′) were tested alone, to detect possible agonist activity. Compounds of formula I or I′ were tested usually in a concentration range from 10^−9 M to 10^−5 M.
(§4) In the second round, performed one hour later (to allow for equilibration), Orexin A was tested either in the absence (calibration curves, Orexin A agonist controls) or in the presence of compounds of formula (I) or (I′) to determine antagonism.

For another experiment, the target named is human orexin 1 receptors (Homo sapiens (Human), UniProt O43613). The experiment is described as above. The format is cell-based. To be noted: for Ki: antagonism of orexin A, Cheng-Prusoff corrected, read-out: FLIPR hOx1R Ki; for inhibition at 10 µM: measured at a concentration of 10 μM of compound, read-out: FLIPR hOx1R % inhibition value. The method, then: as §1
Chain of human orexin 1 receptors (O43613 whole entry): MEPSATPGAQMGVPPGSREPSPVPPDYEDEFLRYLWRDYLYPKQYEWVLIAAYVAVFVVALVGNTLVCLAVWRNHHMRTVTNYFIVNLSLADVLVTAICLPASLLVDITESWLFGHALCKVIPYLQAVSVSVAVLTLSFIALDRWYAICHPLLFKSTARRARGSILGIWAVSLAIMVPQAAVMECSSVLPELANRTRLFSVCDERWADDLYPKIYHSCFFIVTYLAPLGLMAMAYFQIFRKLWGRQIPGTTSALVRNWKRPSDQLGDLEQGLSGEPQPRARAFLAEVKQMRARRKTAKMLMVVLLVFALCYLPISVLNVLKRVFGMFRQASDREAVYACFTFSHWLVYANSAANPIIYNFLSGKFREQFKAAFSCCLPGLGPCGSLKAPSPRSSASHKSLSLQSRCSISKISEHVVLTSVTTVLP
Cells expressing human orexin 1 or human orexin 2 receptors, were seeded at 8,000 cells/well in 384 well black-walled clear bottom, poly-D-lysine coated plates. After 24 h, the medium was removed and cells were washed once with phosphate buffered saline and serum-deprived overnight in assay buffer (130 mM NaCl, 5.4 mM KCl, 1.8 mM CaCl2, 0.8 mM MgSO4, 0.9 mM NaH2PO4, 25 mM glucose, 20 mM HEPES, pH 7.4) containing bovine serum albumin (1% w/v).
On the day of the experiment, the cells seeded in black plates were treated with assay buffer containing the Ca^2+ sensitive fluorescent dye Fluo4-AM (2 μM), and probenecid (0.1 mM). After 1 h plates were washed twice with, and resuspended in, assay buffer containing probenecid (0.1 mM) using a multi plate washer. The plates were placed into a FLIPR II (Fluorometric Imaging Plate Reader, Molecular Devices, Sunnyvale, Calif., USA) and baseline fluorescence (fluorescence light units, FLU) was measured (5 measurements, 2 S each; laser excitation 488 nm at 0.6-1 W, CCD camera exposure 0.4 s) before addition of buffer alone (basal) or containing test compounds (either compound of formula (I) or (I′) alone, agonist alone or agonist in the presence of various concentrations of compounds of formula (I) or (I′)). Fluorescence measurements were then continued every 1 S for 120 S followed by every 4 S for 240 S.
as §2, §3, §4

Chain of human orexin 2 receptors (O43614 whole entry): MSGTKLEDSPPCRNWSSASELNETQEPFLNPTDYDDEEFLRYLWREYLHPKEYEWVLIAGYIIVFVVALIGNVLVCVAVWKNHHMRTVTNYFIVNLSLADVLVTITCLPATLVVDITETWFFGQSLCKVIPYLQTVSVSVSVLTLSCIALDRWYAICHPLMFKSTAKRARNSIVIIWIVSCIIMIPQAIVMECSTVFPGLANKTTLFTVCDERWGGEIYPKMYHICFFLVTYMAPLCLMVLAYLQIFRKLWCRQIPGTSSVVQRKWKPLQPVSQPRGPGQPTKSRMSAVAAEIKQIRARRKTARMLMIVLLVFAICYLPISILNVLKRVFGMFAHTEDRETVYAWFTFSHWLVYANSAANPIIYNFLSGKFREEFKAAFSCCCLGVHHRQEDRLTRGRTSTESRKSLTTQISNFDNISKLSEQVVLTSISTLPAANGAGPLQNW

For the molecule `Cc1ccc([C@H](C)NC(=O)COc2cc(C)c3c(-c4cn(C)cn4)nn(C)c3n2)cc1` [Example 4.13, (S)-2-(1,4-dimethyl-3-(1-methyl-1H-imidazol-4-yl)-1H-pyrazolo[3,4-b]pyridin-6-yloxy)-N-(1-p-tolylethyl)acetamide], the Ki is 626 nM at human orexin 2 receptors and 1160 nM on human orexin 1 receptors.
Consider `CC(NC(=O)COc1cc(C(F)(F)F)c2c(-c3ccccc3)nn(C)c2n1)c1ccccn1` (stereo not shown) [Example 1.29, 2-(1-methyl-3-phenyl-4-(trifluoromethyl)-1H-pyrazolo[3,4-b]pyridin-6-yloxy)-N-(1-(pyridin-2-yl)ethyl)acetamide], for which, at human orexin 2 receptors, the inhibition at 10 µM worked out at 44%. Moreover, the Ki on human orexin 1 receptors stood at 2670 nM.
Turning to `COc1ccc2c(c1)CC[C@H]2NC(=O)COc1cc(C)c2c(C3CC3)nn(C)c2n1` [Example 6.4, (R)-2-(3-cyclopropyl-1,4-dimethyl-1H-pyrazolo[3,4-b]pyridin-6-yloxy)-N-(5-methoxy-2,3-dihydro-1H-inden-1-yl)acetamide], the inhibitory constant (Ki) at human orexin 1 receptors was found to be 1760 nM.
For the molecule `Cc1cc(OCC(=O)NC(C)c2cnc3c(ccn3C)c2)nc2c1c(C1CC1)nn2C` (stereo not shown) [Example 8.1, 2-(3-cyclopropyl-1,4-dimethyl-1H-pyrazolo[3,4-b]pyridin-6-yloxy)-N-(1-(1-methyl-1H-pyrrolo[2,3-b]pyridin-5-yl)ethyl)acetamide], the Ki on human orexin 2 receptors amounted to 165 nM; at human orexin 1 receptors, 92 nM.
As to `Cc1cc(OCC(=O)NC2CCc3cc(F)ccc32)nc2c1c(C1CC1)nn2C` (stereo not shown) [Example 6.40, 2-(3-cyclopropyl-1,4-dimethyl-1H-pyrazolo[3,4-b]pyridin-6-yloxy)-N-(5-fluoro-2,3-dihydro-1H-inden-1-yl)acetamide], the Ki on human orexin 2 receptors came to 589 nM. On human orexin 1 receptors, the inhibition at 10 µM stood at 21%.
Turning to `Cc1cc(OCC(=O)NCc2ccc3c(c2)CCO3)nc2c1c(C1CC1)nn2C` [Example 7.4, 2-(3-cyclopropyl-1H-dimethyl-1H-pyrazolo[3,4-b]pyridin-6-yloxy)-N-((2,3-dihydrobenzofuran-5-yl)methyl)acetamide], the inhibition at 10 µM on human orexin 2 receptors is 26%; at human orexin 1 receptors, under 10%.
In the case of `COc1ccc2c(c1)CC[C@@H]2NC(=O)C(C)Oc1cc(C)c2c(C3CC3)nn(C)c2n1` (single isomer, unassigned) [Example 6.72, (S or R)-2-(3-cyclopropyl-1,4-dimethyl-1H-pyrazolo[3,4-b]pyridin-6-yloxy)-N-((S)-5-methoxy-2,3-dihydro-1H-inden-1-yl)propanamide], the inhibition at 10 µM turned out to be 48% at human orexin 2 receptors and 46% at human orexin 1 receptors.
Turning to `Cn1nc(-c2ccccc2)c2c(C(F)(F)F)cc(OCC(=O)NC3CCCCC3)nc21` [Example 1.9, N-cyclohexyl-2-(1-methyl-3-phenyl-4-(trifluoromethyl)-1H-pyrazolo[3,4-b]pyridin-6-yloxy)acetamide], the Ki on human orexin 2 receptors was 2500 nM. The inhibition at 10 µM at human orexin 1 receptors is 32%.
For the molecule `Cc1ccc2c(cnn2C)c1CNC(=O)COc1cc(C)c2c(C3CC3)nn(C)c2n1` [Example 7.31, 2-(3-cyclopropyl-1,4-dimethyl-1H-pyrazolo[3,4-b]pyridin-6-yloxy)-N-((1,5-dimethyl-1H-indazol-4-yl)methyl)acetamide], the inhibitory constant (Ki) on human orexin 2 receptors amounted to 833 nM; at human orexin 1 receptors, 857 nM.
Consider `Cc1cnc(CNC(=O)COc2cc(C)c3c(C4CC4)nn(C)c3n2)cn1` [Example 7.2, 2-(3-cyclopropyl-1,4-dimethyl-1H-pyrazolo[3,4-b]pyridin-6-yloxy)-N-((5-methylpyrazin-2-yl)methyl)acetamide], for which the inhibition at 10 µM is 15% at human orexin 2 receptors and under 10% on human orexin 1 receptors.
On the same counts, the results for `Cc1cccc(CNC(=O)COc2cc(C(F)(F)F)c3c(-c4ccccc4)nn(C)c3n2)c1` [Example 1.66, 2-(1-methyl-3-phenyl-4-(trifluoromethyl)-1H-pyrazolo[3,4-b]pyridin-6-yloxy)-N-(3-methylbenzyl)acetamide] are 41% and 23%.
For `CC(C)c1noc(C(C)NC(=O)COc2cc(C(F)(F)F)c3c(-c4ccccc4)nn(C)c3n2)n1` (stereo not shown) [Example 1.36, N-(1-(3-isopropyl-1,2,4-oxadiazol-5-yl)ethyl)-2-(1-methyl-3-phenyl-4-(trifluoromethyl)-1H-pyrazolo[3,4-b]pyridin-6-yloxy)acetamide], the inhibition at 10 µM on human orexin 2 receptors worked out at 30%. The Ki at human orexin 1 receptors is 3360 nM.
Turning to `Cc1nn(C)c(C)c1C(C)NC(=O)COc1cc(C(F)F)c2c(C3CC3)nn(C)c2n1` (stereo not shown) [Example 6.9, 2-(3-cyclopropyl-4-(difluoromethyl)-1-methyl-1H-pyrazolo[3,4-b]pyridin-6-yloxy)-N-(1-(1,3,5-trimethyl-1H-pyrazol-4-yl)ethyl)acetamide], the values for the Ki at human orexin 2 receptors and on human orexin 1 receptors were 527 nM and 778 nM, respectively.
In the case of `Cc1cc(OCC(=O)NCC2CCCCC2)nc2c1c(C1CC1)nn2C` [Example 7.6, N-(cyclohexylmethyl)-2-(3-cyclopropyl-1,4-dimethyl-1H-pyrazolo[3,4-b]pyridin-6-yloxy)acetamide], the inhibition at 10 µM is under 10% at human orexin 2 receptors and 18% at human orexin 1 receptors.
With `Cc1cc(OCC(=O)N[C@@H](C)C2CCCC2)nc2c1c(C1CC1)nn2C` [Example 6.56, (S)-N-(1-cyclopentylethyl)-2-(3-cyclopropyl-1,4-dimethyl-1H-pyrazolo[3,4-b]pyridin-6-yloxy)acetamide], the inhibition at 10 µM on human orexin 2 receptors and at human orexin 1 receptors was under 10% in each case.
For the molecule `Cc1nn(C)c(C)c1C(C)NC(=O)COc1cc(C)c2c(C(C)C)nn(C)c2n1` (stereo not shown) [Example 6.29, 2-(3-isopropyl-1,4-dimethyl-1H-pyrazolo[3,4-b]pyridin-6-yloxy)-N-(1-(1,3,5-trimethyl-1H-pyrazol-4-yl)ethyl)acetamide], the inhibition at 10 µM on human orexin 2 receptors was determined as 34%; at human orexin 1 receptors it was 36%.
Turning to `Cc1ccc([C@H](C)NC(=O)COc2cc(C)c3c(-c4cc(C)nn4C)nn(C)c3n2)cc1` [Example 4.5, (S)-2-(3-(1,3-dimethyl-1H-pyrazol-5-yl)-1,4-dimethyl-1H-pyrazolo[3,4-b]pyridin-6-yloxy)-N-(1-p-tolylethyl)acetamide], the Ki on human orexin 2 receptors was found to be 923 nM; on human orexin 1 receptors, 670 nM.
On the same counts, the results for `Cc1cc(OCC(=O)N[C@@H](C)c2ccccc2)nc2c1c(C1CC1)nn2C` [Example 1.69, (S)-2-(3-cyclopropyl-1,4-dimethyl-1H-pyrazolo[3,4-b]pyridin-6-yloxy)-N-(1-phenylethyl)acetamide] are 938 nM and 1010 nM.
For `Cc1cc(OCC(=O)NC(C)c2ccc3c(c2)ncn3C)nc2c1c(C1CC1)nn2C` (stereo not shown) [Example 6.58, 2-(3-cyclopropyl-1,4-dimethyl-1H-pyrazolo[3,4-b]pyridin-6-yloxy)-N-(1-(1-methyl-1H-benzo[d]imidazol-5-yl)ethyl)acetamide], the results for the Ki on human orexin 2 receptors and on human orexin 1 receptors were 382 nM and 1010 nM, respectively.
Consider `Cc1ccc([C@H](C)NC(=O)COc2nc3c(c(C4CC4)nn3C)c(C)c2C)cc1` [Example 6.75, (S)-2-(3-cyclopropyl-1,4,5-trimethyl-1H-pyrazolo[3,4-b]pyridin-6-yloxy)-N-(1-p-tolylethyl)acetamide], for which the Ki at human orexin 2 receptors came out at 567 nM; at human orexin 1 receptors, 1750 nM.
As for `Cc1cc(OCC(=O)NC(C)c2ccncc2)nc2c1c(-c1ccccc1)nn2C` (stereo not shown) [Example 1.63, 2-(1,4-dimethyl-3-phenyl-1H-pyrazolo[3,4-b]pyridin-6-yloxy)-N-(1-(pyridin-4-yl)ethyl)acetamide], the inhibition at 10 µM on human orexin 2 receptors stood at 34%; at human orexin 1 receptors, 27%.
Regarding `COc1ccc([C@H](C)NC(=O)COc2cc(C)c3c(-c4cc(OC)cc(OC)c4)nn(C)c3n2)cc1` [Example 6.1, (S)-2-((3-(3,5-dimethoxyphenyl)-1,4-dimethyl-1H-pyrazolo[3,4-b]pyridin-6-yl)oxy)-N-(1-(4-methoxyphenyl)ethyl)acetamide], the Ki on human orexin 2 receptors amounted to 185 nM.
On to `Cc1n[nH]c(C)c1[C@@H](C)NC(=O)COc1cc(C(F)(F)F)c2c(-c3ccccc3)nn(C)c2n1` [Example 1.62, (R)-N-(1-(3,5-dimethyl-1H-pyrazol-4-yl)ethyl)-2-(1-methyl-3-phenyl-4-(trifluoromethyl)-1H-pyrazolo[3,4-b]pyridin-6-yloxy)acetamide], for which the inhibition at 10 µM at human orexin 2 receptors turned out to be 36%.
